SMILES strings stand for the structures.

The nature of this test: Potassium channel opening activity in vitro using LtK cells transfected with Kir6.2/SUR2B exon 17.
In general, EC50 refers to the concentration that produces a half-maximal response. A high value points to lower potency in that assay. The compound `O=C(Nc1c(C(O)(C(F)(F)F)C(F)(F)F)ccc2ccccc12)c1ccccc1` [N-[2-(2,2,2-Trifluoro-1-hydroxy-1-trifluoromethyl-ethyl)-naphthalen-1-yl]-benzamide] came in with an EC50 of 44 nM.

On to `CCCC(=O)Nc1c(C(O)(C(F)(F)F)C(F)(F)F)ccc2ccccc12` [N-[2-(2,2,2-Trifluoro-1-hydroxy-1-trifluoromethyl-ethyl)-naphthalen-1-yl]-butyramide], for which a half-maximal effect (EC50) was put at 131 nM.

`CC(C)C(=O)Nc1c(C(O)(C(F)(F)F)C(F)(F)F)ccc2ccccc12` [N-[2-(2,2,2-Trifluoro-1-hydroxy-1-trifluoromethyl-ethyl)-naphthalen-1-yl]-isobutyramide] had an EC50 of 6630 nM.

As for `O=C(Nc1c(C(O)(C(F)(F)F)C(F)(F)F)ccc2ccccc12)c1cccnc1` [N-[2-(2,2,2-Trifluoro-1-hydroxy-1-trifluoromethyl-ethyl)-naphthalen-1-yl]-nicotinamide], the EC50 is 60 nM.

In turn, `CCC(=O)Nc1c(C(O)(C(F)(F)F)C(F)(F)F)ccc2ccccc12` [N-[2-(2,2,2-Trifluoro-1-hydroxy-1-trifluoromethyl-ethyl)-naphthalen-1-yl]-propionamide] displayed an EC50 of 15 nM.

Regarding `CC(=O)Nc1c(C(O)(C(F)(F)F)C(F)(F)F)cc(Br)c2ccccc12` [N-[4-Bromo-2-(2,2,2-trifluoro-1-hydroxy-1-trifluoromethyl-ethyl)-naphthalen-1-yl]-acetamide], the midpoint of the response, the EC50, lay at 5310 nM.

As to `CC(=O)Nc1c(C(O)(C(F)(F)F)C(F)(F)F)ccc2c(O)cccc12` [N-[5-Hydroxy-2-(2,2,2-trifluoro-1-hydroxy-1-trifluoromethyl-ethyl)-naphthalen-1-yl]-acetamide], a half-maximal effect (EC50) was put at 137 nM.

`CC(=O)Nc1c(C(O)(C(F)(F)F)C(F)(F)F)ccc2cc(O)ccc12` [N-[6-Hydroxy-2-(2,2,2-trifluoro-1-hydroxy-1-trifluoromethyl-ethyl)-naphthalen-1-yl]-acetamide] gave a concentration for a half-maximal effect (EC50) of 2220 nM.

`O=C(Nc1c(C(O)(C(F)(F)F)C(F)(F)F)ccc2ccccc12)c1cnco1` [Oxazole-5-carboxylic acid [2-(2,2,2-trifluoro-1-hydroxy-1-trifluoromethyl-ethyl)-naphthalen-1-yl]-amide] gave an EC50 of 24 nM.

As to `O=C(Nc1c(C(O)(C(F)(F)F)C(F)(F)F)ccc2ccccc12)c1cnc2ccccc2n1` [Quinoxaline-2-carboxylic acid [2-(2,2,2-trifluoro-1-hydroxy-1-trifluoromethyl-ethyl)-naphthalen-1-yl]-amide], a half-maximal effect (EC50) was put at 317 nM.

As to `O=C(Nc1c(C(O)(C(F)(F)F)C(F)(F)F)ccc2ccccc12)c1cccs1` [Thiophene-2-carboxylic acid [2-(2,2,2-trifluoro-1-hydroxy-1-trifluoromethyl-ethyl)-naphthalen-1-yl]-amide], the EC50 was 12 nM.

In the case of `CC(C)OC(=O)Nc1c(C(O)(C(F)(F)F)C(F)(F)F)ccc2ccccc12` [[2-(2,2,2-Trifluoro-1-hydroxy-1-trifluoromethyl-ethyl)-naphthalen-1-yl]-carbamic acid isopropyl ester], the response was half-maximal at 1160 nM (EC50).

The record behind these values is BindingDB's records for doi:10.1016/s0960-894x(03)00205-1 (Abbott Laboratories, 2003).
